Experimental data published in the supplement of paper PMC10331698.
± gives the standard deviation of the averaged measurements.

How the values were obtained:
Assay in all cases: level (log10 ratio to DMSO vehicle control); higher = higher biomarker level / cell amount than vehicle control
[1] = compound: C=C(C)C(=O)OCCC(F)(F)C(F)(F)C(F)(F)C(F)(F)C(F)(C(F)(F)F)C(F)(F)F [(Perfluoro-5-methylhexyl)ethyl 2-methylprop-2-enoate]; conditions: in DMSO
Experimental: (§1)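 BioMAP Diversity Plus panel of 12 human primary cell co-culture systems (3C, 4H, LPS, SAg, BT, BF4T, BE3C, CASM3C, HDF3CGF, KF3CT, MyoF, Mphg). Compounds were added 1 h before stimulation and left for 24 h (MyoF 48 h; BT 72 h for soluble read-outs or 6 d for IgG). Biomarkers were read by ELISA, cytotoxicity by SRB, PBMC viability and proliferation by Alamar Blue. Each well value was divided by the mean of 8 DMSO control wells on the same plate and log10 transformed; duplicate blinded samples were tested at 4 concentrations.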

[2] = compound: C=CC(F)(F)C(F)(F)C(F)(F)C(F)(F)C(F)(F)C(F)(F)C(F)(F)C(F)(F)C=C [1,8-Divinylperfluorooctane]; conditions: in DMSO
Experimental: as §1

[3] = compound: FC(F)(F)C(F)(F)C(F)(F)C(F)(F)C(F)(F)C(F)(F)C(F)(F)C(F)(F)CCS [2-(Perfluorooctyl)ethanthiol]; conditions: in DMSO
Experimental: as §1

[4] = compound: FC(F)C(F)(F)COCC1CO1 [((2,2,3,3-Tetrafluoropropoxy)methyl)oxirane]; conditions: in DMSO
Experimental: as §1

[5] = compound: NCC(F)(F)C(F)(F)C(F)(F)C(F)(F)C(F)(F)C(F)(F)C(F)(F)F [1H,1H-Perfluorooctylamine]; conditions: in DMSO
Experimental: as §1

[6] = compound: O=C(O)C(F)(F)C(F)(F)C(F)(F)C(F)(F)C(F)(F)C(F)(F)C(F)(F)C(F)F [9-H-Perfluorononanoic acid]; conditions: in DMSO
Experimental: as §1

[7] = compound: O=C(O)C(F)(F)C(F)(F)C(F)(F)OC(F)(C(F)(F)F)C(F)(F)F [Perfluoro-4-isopropoxybutanoic acid]; conditions: in DMSO
Experimental: as §1

[8] = compound: OCCCC(F)(F)C(F)(F)C(F)(F)C(F)(F)C(F)(F)C(F)(F)C(F)(F)F [7:3 Fluorotelomer alcohol]; conditions: 6700 nM; in DMSO
Experimental: as §1

Row | Test System | level (log10) ([1]; 6700 nM) | level (log10) ([1]; 20000 nM) | level (log10) ([2]; 6700 nM) | level (log10) ([2]; 20000 nM) | level (log10) ([3]; 6700 nM) | level (log10) ([3]; 20000 nM) | level (log10) ([4]; 6700 nM) | level (log10) ([4]; 20000 nM) | level (log10) ([4]; 60000 nM) | level (log10) ([5]; 6700 nM) | level (log10) ([5]; 20000 nM) | level (log10) ([5]; 60000 nM) | level (log10) ([6]; 6700 nM) | level (log10) ([6]; 20000 nM) | level (log10) ([6]; 60000 nM) | level (log10) ([7]; 6700 nM) | level (log10) ([7]; 20000 nM) | level (log10) ([7]; 60000 nM) | level (log10) [8]
1 | HDF3CGF:CD54/ICAM-1 | 0.0005 ± 0.016 | -0.0045 ± 0.026 | 0.003 ± 0.028 | 0.0475 ± 0.028 | -0.012 ± 0.0057 | -0.0145 ± 0.021 | 0.001 ± 0.013 | 0.006 ± 0.0014 | -0.007 ± 0.018 | -0.003 ± 0.013 | -0.0055 ± 0.011 | -0.0095 ± 0.0078 | -0.035 ± 0.042 | -0.052 ± 0.021 | -0.045 ± 0.02 | -0.009 ± 0.0071 | -0.01 ± 0.0028 | -0.031 ± 0.017 | -0.024 ± 0.0085
2 | HDF3CGF:CD106/VCAM-1 | 0.02 ± 0.023 | -0.0275 ± 0.011 | -0.028 ± 0.021 | -0.016 ± 0.017 | -0.0255 ± 0.0064 | -0.0555 ± 0.059 | -0.001 ± 0.016 | -0.0075 ± 0.023 | -0.0295 ± 0.037 | -0.0015 ± 0.0078 | -0.0445 ± 0.074 | -0.08 ± 0.095 | -0.041 ± 0.018 | -0.064 ± 0.013 | -0.066 ± 0.013 | -0.027 ± 0.062 | -0.0545 ± 0.067 | -0.0545 ± 0.00071 | -0.0795 ± 0.005
3 | HDF3CGF:CXCL8/IL-8 | -0.004 ± 0.0042 | 0.0025 ± 0.005 | -0.0095 ± 0.0021 | -0.002 ± 0.0085 | -0.004 ± 0.0099 | -0.0095 ± 0.00071 | -0.0145 ± 0.016 | -0.004 ± 0.0014 | 0.005 ± 0.0085 | -0.0025 ± 0.005 | -0.018 ± 0.0099 | -0.002 ± 0.0042 | -0.0055 ± 0.0021 | -0.0055 ± 0.0064 | 0.0015 ± 0.0035 | 0.0015 ± 0.00071 | 0.0135 ± 0.0035 | 0.0035 ± 0.0021 | -0.005 ± 0.0042
4 | HDF3CGF:CXCL9/MIG | 0.0135 ± 0.00071 | 0.0095 ± 0.011 | 0.006 ± 0.0057 | -0.001 ± 0.024 | -0.0085 ± 0.0078 | -0.0125 ± 0.0092 | -0.001 ± 0.013 | 0.0115 ± 0.023 | -0.009 ± 0.028 | -0.006 ± 0.018 | -0.0205 ± 0.011 | -0.0115 ± 0.005 | -0.0475 ± 0.022 | -0.052 ± 0.0071 | -0.0735 ± 0.016 | -0.0125 ± 0.023 | 0.0185 ± 0.005 | 0.009 ± 0.024 | -0.0225 ± 0.018
5 | HDF3CGF:CXCL10/IP-10 | -0.0005 ± 0.0078 | -0.003 | 0.0205 ± 0.035 | 0.017 ± 0.035 | -0.027 ± 0.025 | -0.0495 ± 0.005 | -0.0085 ± 0.032 | -0.033 ± 0.0057 | -0.0175 ± 0.023 | 0.0115 ± 0.03 | -0.006 ± 0.011 | -0.0005 ± 0.00071 | -0.0535 ± 0.016 | -0.023 ± 0.02 | -0.052 ± 0.017 | -0.0135 ± 0.0064 | -0.029 ± 0.011 | -0.0615 ± 0.0035 | -0.047 ± 0.03
6 | HDF3CGF:CXCL11/I-TAC | -0.013 ± 0.0014 | -0.0155 ± 0.013 | 0.0135 ± 0.013 | 0.016 ± 0.037 | -0.0135 ± 0.028 | -0.0355 ± 0.0092 | 0.027 ± 0.013 | -0.0005 ± 0.0035 | 0.003 ± 0.0057 | -0.0135 ± 0.035 | -0.021 ± 0.033 | -0.046 ± 0.078 | -0.059 ± 0.0085 | -0.078 ± 0.0099 | -0.09 ± 0.021 | 0.002 ± 0.021 | 0.008 ± 0.0042 | -0.0025 ± 0.00071 | -0.0445 ± 0.023
7 | HDF3CGF:Collagen I | 0.0115 ± 0.067 | 0.034 ± 0.092 | 0.043 ± 0.054 | 0.0595 ± 0.016 | 0.0055 ± 0.052 | 0.0125 ± 0.052 | -0.03 ± 0.0042 | -0.038 ± 0.013 | 0.022 ± 0.11 | -0.047 | -0.0275 ± 0.0078 | 0.028 ± 0.081 | -0.0315 ± 0.1 | 0.009 ± 0.096 | 0.015 ± 0.052 | -0.0285 ± 0.067 | -0.043 ± 0.078 | 0.032 ± 0.12 | -0.0325 ± 0.046
8 | HDF3CGF:Collagen III | -0.0195 ± 0.05 | 0.0105 ± 0.05 | 0.001 ± 0.024 | -0.0125 ± 0.029 | 0.0005 ± 0.033 | 0.002 ± 0.035 | -0.002 ± 0.037 | -0.0115 ± 0.00071 | -0.0035 ± 0.011 | -0.009 ± 0.021 | -0.0055 ± 0.00071 | -0.0165 ± 0.023 | -0.047 ± 0.013 | -0.115 ± 0.013 | -0.155 ± 0.057 | -0.02 ± 0.051 | -0.0115 ± 0.011 | -0.0025 ± 0.057 | 0.0135 ± 0.044
9 | HDF3CGF:EGFR | -0.0695 ± 0.0078 | -0.0415 ± 0.0064 | 0.033 | 0.005 ± 0.041 | -0.0295 ± 0.018 | -0.018 ± 0.04 | 0.012 ± 0.014 | 0.0065 ± 0.005 | 0.029 ± 0.041 | -0.039 ± 0.047 | -0.047 ± 0.073 | -0.034 ± 0.086 | -0.011 ± 0.0028 | -0.024 ± 0.0057 | -0.034 ± 0.014 | -0.001 ± 0.034 | -0.0035 ± 0.022 | -0.012 ± 0.024 | -0.005 ± 0.12
10 | HDF3CGF:M-CSF | -0.0175 ± 0.0078 | -0.0175 ± 0.0035 | -0.0335 ± 0.042 | -0.0085 ± 0.053 | -0.0185 ± 0.013 | -0.014 ± 0.0099 | 0.009 | -0.001 ± 0.033 | -0.001 ± 0.013 | -0.0255 ± 0.0064 | -0.031 ± 0.061 | -0.027 ± 0.069 | -0.067 ± 0.0028 | -0.0835 ± 0.011 | -0.05 ± 0.027 | -0.016 ± 0.0071 | -0.0135 ± 0.0078 | -0.0055 ± 0.005 | 0.0035 ± 0.044
11 | HDF3CGF:MMP-1 | 0.002 ± 0.0085 | 0.008 ± 0.018 | -0.0035 ± 0.005 | 0.0165 ± 0.012 | -0.0095 ± 0.022 | -0.0235 ± 0.044 | 0.0085 ± 0.012 | 0.0175 ± 0.0064 | 0.0125 ± 0.023 | -0.012 ± 0.0014 | 0.0015 ± 0.0035 | 0.013 ± 0.0014 | -0.047 ± 0.011 | -0.0915 ± 0.013 | -0.0745 ± 0.0078 | -0.0055 ± 0.0035 | 0 ± 0.0028 | -0.0015 ± 0.011 | -0.034 ± 0.021
12 | HDF3CGF:PAI-I | -0.037 ± 0.0028 | -0.0385 ± 0.019 | 0 ± 0.013 | -0.0065 ± 0.012 | -0.077 ± 0.054 | -0.0885 ± 0.066 | 0.0065 ± 0.016 | 0.0065 ± 0.0064 | 0.0035 ± 0.011 | 0.008 ± 0.033 | -0.018 ± 0.0042 | -0.003 ± 0.023 | -0.0135 ± 0.0092 | 0.004 ± 0.0028 | 0.0175 ± 0.023 | -0.001 ± 0.033 | -0.0115 ± 0.025 | -0.0165 ± 0.013 | 0.0175 ± 0.029
13 | HDF3CGF:Proliferation 72hr | -0.015 ± 0.0028 | -0.014 | 0.103 ± 0.028 | -0.046 ± 0.028 | -0.003 ± 0.0071 | -0.0115 ± 0.013 | -0.054 ± 0.0057 | -0.023 ± 0.0042 | -0.099 ± 0.0014 | -0.041 ± 0.045 | 0.004 ± 0.035 | -0.016 ± 0.041 | 0.062 ± 0.018 | 0.0905 ± 0.049 | -0.0045 ± 0.098 | 0.0305 ± 0.037 | 0.04 ± 0.055 | 0.051 ± 0.011 | -0.49 ± 0.0042
